Data taken from patent publication US11648381B2, “Thermally controlled residence devices” (Massachusetts Institute of Technology, priority 2018, dated 2023).

Key:
[1] = in vitro drug release from drug-polymer matrices in simulated gastric fluid; assay type: physicochemical; conditions: addition of water soluble polymers such as PEG 3350 and Kolliphor P 407 to the polymer matrix; SGF with 5% (w/v) Tween 20
Experimental: To perform the release study, drug-polymer matrices ( 1 cm in length) were incubated with 50 ml of the respective release medium in a 37° C. incubator shaker at 50 rpm. At various times, 1 ml of the release medium was collected and stored at -20° C. until further analysis. The remaining medium was discarded, and the arms were incubated with fresh medium. For measuring drug concentrations in the release medium, all specimens (beam-like arms) were thawed, centrifuged at 1500 g for 10 min, and analyzed using high-performance liquid chromatography (HPLC). Depending on the drug used, the links had excipients and elasticizers added to enhance the drug release and mechanical properties, respectively. For both moxifloxacin ([…], Inc) and carbamazepine (Ark Pharm, Inc), poly(ethylene glycol) (PEG) (molecular weight-3350 Da, Spectrum Corp.), Kolliphor® P 407 (BASF), and EUDRAGIT® E PO (Evonik) were used as excipients. For carbamazepine, CarbothaneTM TPU P[…] was used as an elasticizer. For X-ray visualization, 15% weight ratio of BaSO4 was added. Various polymeric formulations were investigated for controlled release of the drugs. The in vitro drug release was also investigated by changing drug loading and the composition of excipients, as well as application of polymeric coating (using a solution of 5.4% PCL (w/v) and 0.6% EUDRAGIT® E PO (w/v) in acetone). […]

[2] = drug stability in simulated gastric fluid; assay type: physicochemical; conditions: SGF pH 1.2, 37° C., 24 hour duration; HPLC-UV
Experimental: Given that the tested residence device is designed to reside in the stomach for an extended period, the drug stability was analyzed in simulated gastric fluid (0.2% w/v sodium chloride, and 0.7% w/v hydrochloric acid, adjusted to pH-1.2; referred to as SGF). Moxifloxacin was dissolved in SGF and placed at 37° C. At various times, part of the solution was aliquoted and stored at about −20° C. until further analysis. For carbamazepine, the drug was first dissolved in methanol and then diluted in SGF (at least 100-fold). At various times, part of the solution was collected and stored at −20° C. On completion of the study, drug concentration in the various aliquots was measured using high performance liquid chromatography-ultraviolet (HPLC-UV) analysis (High Performance Liquid Chromatography).

[3] = drug stability at elevated temperature; assay type: physicochemical; conditions: 120° C., may be reached during manufacturing of the dosage form
Experimental: Additionally, drug stability was evaluated for an elevated temperature of 120° C. which may be reached during the manufacturing of the dosage form.

[4] = solubility in simulated gastric fluid; assay type: physicochemical
[5] = in vivo prolonged drug delivery, blood concentration versus time; design: species or system Yorkshire pigs; conditions: pigs
Experimental: To evaluate the ability of residence devices loaded with the selected carbamazepine formulation to achieve gastric retention, the above described residence device was administered to a large animal model (three 35 to 50 kg Yorkshire pigs for each drug). Following overnight fasting and sedation of the animals, an overtube (US Endoscopy), with endoscopic guidance, was placed into the stomach to facilitate direct gastric delivery of the residence device. A residence devices folded into a cylindrical shape of length 20 cm and diameter of 12 mm (see the folded configuration in FIG. 1A) was administered via the overtube into the stomach of each pig, and the overtube was then removed. […] Serial radiographs were performed immediately afterwards and every 48-72 hours to monitor the integrity and transit of the devices as well as any radiographic evidence of bowel obstruction. In addition, animals were monitored clinically at least twice a day for any evidence of morbidity, including lethargy, inappetence, decreased fecal output, abdominal distension and vomiting. […] Endoscopic evaluation of the stomach over the course of the study was performed to further explore the stomach and ensure the absence of any ulceration or injury. Blood samples were taken at the following time points, 0 min (before administration of the dosage form), 5 min, 15 min, 30 min, 2 hours, 6 hours, daily for a minimum of 5 days, and then three times for the second week from peripheral veins under sedation.
One hundred microliters of each blood sample was spiked with 200 μl of 250 ng/mL internal standard (imipramine for carbamazepine) with acetonitrile added to elicit protein precipitation. Samples were vortexed, sonicated, and centrifuged prior to being pipetted into a well plate containing 200 μl of nanopure water. Finally, the samples were injected into an Ultra Performance Liquid Chromatography tandem mass spectrometry (UPLC-MS/MS) for analysis.

| Structure (SMILES) | increase in release of carbamazepine [1] | stability in SGF [2] | drug degradation at elevated temperature [3] | solubility in simulated gastric fluid (SGF) [4] | carbamazepine concentration versus time profile ([5]; 14 day residence time, UPLC-MS/MS) | area under the curve as compared to immediate release formulations ([5]; residence device) | maximum concentration as compared to immediate release formulations ([5]; residence device) | duration of drug delivery after a single administration ([5]; residence device, direct gastric delivery) |
| --- | --- | --- | --- | --- | --- | --- | --- | --- |
| NC(=O)N1c2ccccc2C=Cc2ccccc21 [carbamazepine] | greater than 3 fold | stable | no appreciable drug degradation | limited solubility | initial spike in concentration was observed in the first day followed by relatively uniform concentrations | enhanced area under the curve | lower maximum concentration | up to 14 days |
| COc1c(N2C[C@@H]3CCCN[C@@H]3C2)c(F)cc2c(=O)c(C(=O)O)cn(C3CC3)c12 [moxifloxacin] |  | stable | no appreciable drug degradation |  |  |  |  |  |
